Results on eleven molecules are retold here after US20260256751A1, “COMBINATION OF BETA-2-ADRENERGIC RECEPTOR AGONISTS AND GLP-1 RECEPTOR AGONISTS FOR USE IN TREATING HYPERGLYCAEMIA” (ATROGI AB, priority 2023, published 2026).

Bounds are passed on as bounds.

One test concerns the target T1, β2-adrenergic receptor (Rattus norvegicus, UniProt P10608).
T1 construct: L6-myoblasts were grown in Dulbecco's Modified Eagle's Medium (DMEM); endogenous in cells; host or cells: L6 myoblasts differentiated into myotubes
As to the kind of experiment: Glucose uptake in the presence of a selective β2-adrenergic receptor inhibitor (Biological Example 1). Type of test: cell-based. The note with it: L6-myotubes; Compound A (2HCl salt) 1×10^−5 M in the presence of ICI-118551; FIG. 1.

The test system of test [1] is male C57Bl/6N mice fed with high-fat, high-sucrose diet. As to the kind of experiment: Combination of Compound A and liraglutide in high-fat, high-sucrose diet fed mice (Biological Example 2). The format is in vivo. The following applies: Compound A hemi-tartrate 1 mg/kg with liraglutide 0.1 mg/kg, subcutaneously, daily for 2 weeks; compared with liraglutide; FIGS. 2-5. The protocol: 2.5 Months old male C57Bl/6N mice were grouped caged (4-5 mice per cage), kept at 30° C. and fed with high-fat, high-sucrose diet (45% fat) for 5.5 months. The mice were divided into four groups (2-3 mice per cage) according to their fasting blood glucose levels, glucose tolerance, body weight, body fat and lean mass, and treated daily for 2 weeks, subcutaneously with either vehicle, liraglutide (0.1 mg/kg), Compound A (1 mg/kg), or a mixture of liraglutide (0.1 mg/kg) and Compound A (1 mg/kg). The mice were fasted for 5 h and fasting blood glucose and fasting serum insulin levels were recorded. Glucose (2.5 g/kg lean mass) was injected ip and glucose levels were recorded after 15, 30, 60, 90 and 120 min. The results were used to calculate HOMA-IR (fasting blood glucose (mM)×fasting insulin (μIU/mL)/22.5) and glucose tolerance (area under the curves 0-120 min over the 5.5 mM blood glucose level).

In test [2] the test system is differentiated L6-myotubes. The note with it: as described in WO 2019/053427, Biological Example 1 therein; cited from earlier work.
Test [3] relates to differentiated L6-myotubes. The note with it: as described in WO 2019/053427, Biological Example 2 therein; cited from earlier work.
The test system of test [4] is differentiated L6-myotubes. The experiment in a line: Glucose uptake screen (Biological example 1 of WO 2019/053427). The following applies: compound at 10 μM, activity relative to isoproterenol at 10 μM, read-out: Biological example 1 of WO 2019/053427 (GU). Type of test: cell-based. An outline of the steps: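 Rat L6 myoblasts were differentiated into myotubes over 7 days in 2% FBS, then serum-starved overnight. Cells were stimulated with 1×10^−5 M compound plus β2 antagonist ICI-118551 for 1 h 40 min and re-dosed for 20 min in glucose-free medium. Uptake of 50 nM ^3H-2-deoxyglucose over 10 min was counted after NaOH lysis.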

Test [5] relates to differentiated L6-myotubes. The experiment in a line: cAMP production relative to isoprenaline (Biological example 2 of WO 2019/053427). The format is cell-based. The following applies: 0.25 h, compound at 10 μM, activity relative to isoproterenol at 10 μM. A digest of the protocol:
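Differentiated L6 myotubes stimulated 15 min with test compound or isoprenaline, each at final 1×10^−5 M, in HBSS with 1% BSA, 5 mM HEPES, 1 mM IBMX, pH 7.4. cAMP production by the compound expressed relative to that induced by the same concentration of isoprenaline.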

T1 sequence (P10608 whole entry): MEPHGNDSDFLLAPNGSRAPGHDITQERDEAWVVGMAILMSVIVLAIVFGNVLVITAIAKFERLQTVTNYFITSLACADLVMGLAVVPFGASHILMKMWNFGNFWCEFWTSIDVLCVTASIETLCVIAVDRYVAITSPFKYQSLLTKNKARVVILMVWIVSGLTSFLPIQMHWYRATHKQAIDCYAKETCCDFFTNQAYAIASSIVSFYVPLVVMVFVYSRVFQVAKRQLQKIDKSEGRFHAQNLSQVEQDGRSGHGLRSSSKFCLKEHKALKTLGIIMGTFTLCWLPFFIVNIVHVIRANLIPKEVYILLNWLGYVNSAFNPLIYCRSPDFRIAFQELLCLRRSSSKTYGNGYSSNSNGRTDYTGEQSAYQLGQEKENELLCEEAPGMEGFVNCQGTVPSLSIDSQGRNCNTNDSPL
Method for β2-adrenergic receptor: L6-myoblasts were grown in Dulbecco's Modified Eagle's Medium (DMEM) containing 1 g/L glucose supplemented with 10% fetal bovine serum (FBS), 2 mM L-glutamine, 50 U/mL penicillin, 50 g/mL streptomycin and 10 mM HEPES. Cells were plated at 1x 10^5 cells per mL in 24-well plates. After reaching 90% confluence the cells were grown in medium containing 2% FBS for 7 days where upon cells differentiated into myotubes. […] After 1 h 40 min the cells were washed with warm, glucose free medium twice and another portion of agonist was added to the glucose free medium. After another 20 min of incubation the cells were exposed to 50 nM ^3H-2-deoxyglucose for 10 min before washed in ice cold glucose free medium three times and lysed in 400 µl/well 0.2 M NaOH for 1 h at 60° C.

As for `CC(C)(C)NC[C@H](O)c1cncc(F)c1` [Compound A, (R)-2-(tert-Butylamino)-1-(5-fluoropyridin-3-yl)ethan-1-ol], the “receptor mediating the glucose uptake promoted by the compound” value on β2-adrenergic receptor is listed as “mediated through the β2-adrenergic receptor”. In test [1], the “effects on glucose homeostasis (glycemia, glucose tolerance and insulin sensitivity)” value is listed as “additional positive effects”. For the same molecule, the glucose uptake result in test [2] is listed as “significant glucose uptake”. The cAMP levels induced entry in test [3] is “without inducing significant levels of cAMP”.
On to `CC(C)(C[C@H]1CC[C@@H](C#N)CC1)NC[C@H](O)c1cccc(F)c1` [Compound 399, (1S,4s)-4-{2-[(R)-2-(m-fluorophenyl)-2-hydroxyethylamino]-2-methylpropyl)cyclohexanecarbonitrile], for which the Emax at 10 µM in test [4] was greater than 75%; in test [5], 25 to 50%.
Take `Cc1ncccc1[C@@H](O)CNC(C)(C)C[C@H]1CC[C@H](NS(C)(=O)=O)CC1` [Compound 435, (R)-2-{1,1-dimethyl-2-[(1r,4R)-4-(mesylamino)cyclohexyl]ethylamino}-1-(2-methyl-3-pyridyl)-1-ethanol]: the figures for the Emax at 10 µM in test [4] and in test [5] were 25 to 50% and less than 25%, respectively.
Turning to `O[C@@H](c1cccc(F)c1)[C@H]1CC[C@H](Cc2ccc(Cl)cc2)N1` [Compound 394, (S)-{(2R,5R)-5-[(p-chlorophenyl)methyl]-2-pyrrolidinyl}(m-fluorophenyl)methanol], the Emax at 10 µM in test [4] was 50 to 75%; in test [5] it was less than 25%.
Regarding `CC1(C)C[C@@H]([C@H](O)c2cncc(F)c2)N1` [Compound 216, (R)-[(S)-4,4-dimethyl-2-azetidinyl](5-fluoro-3-pyridyl)methanol], the Emax at 10 µM was 25 to 50% in test [4] and less than 25% in test [5].
Turning to `CC12CC(C1)[C@H]([C@@H](O)c1cccc(Cl)c1)N2` [Compound 208, (S)-{(R)-1-methyl-2-azabicyclo[2.1.1]hex-3-yl}(m-chlorophenyl)methanol], the Emax at 10 µM was 50 to 75% in test [4] and less than 25% in test [5].
Taken in the same sequence, the figures for `CC12CC(C1)[C@@H]([C@H](O)c1cccc(N)c1F)N2` [Compound 244, (R)-{(S)-1-methyl-2-azabicyclo[2.1.1]hex-3-yl}(3-amino-2-fluorophenyl)methanol] were 50 to 75% and less than 25%.
In the case of `CC1(C)CC[C@@H]([C@H](O)c2cccc(F)c2)N1` [Compound 144, (R)-[(S)-5,5-dimethyl-2-pyrrolidinyl](m-fluorophenyl)methanol], the Emax at 10 µM in test [4] and in test [5] was less than 25% in each case.
On to `CC12CC(C1)[C@H]([C@H](O)c1cncc(F)c1)N2` [Compound 220, (R)-{(R)-1-methyl-2-azabicyclo[2.1.1]hex-3-yl}(5-fluoro-3-pyridyl)methanol], for which the figures for the Emax at 10 µM in test [4] and in test [5] were greater than 75% and less than 25%, respectively.
`O[C@@H](CNCC[C@H]1CC[C@@H](O)CC1)c1cccc(F)c1` [Compound 297, (R)-1-(m-fluorophenyl)-2-{2-[(1s,4S)-4-hydroxycyclohexyl]ethylamino}-1-ethanol]: the Emax at 10 µM in test [4] was 50 to 75%; in test [5] it was less than 25%.
On to `CC12CCC([C@H](O)c3cccc(F)c3)(CC1)N2` [Compound 179, (R)-(m-fluoropehnyl)(4-methyl-7-azabicyclo[2.2.1]hept-1-yl)methanol], for which the Emax at 10 µM in test [4] was 50 to 75%; in test [5] it was less than 25%.
